Test results as given in patent EP0343954B1, “Aromatic steroid 5-alpha-reductase inhibitors” (SMITHKLINE BEECHAM CORPORATION, priority 1988, dated 1989).

B1: human steroid 5-α-reductase (Homo sapiens) (protein)
chain: MQVQCQQSPVLAGSATLVALGALALYVAKPSGYGKHTESLKPAATRLPARAAWFLQELPSFAVPAGILARQPLSLFGPPGTVLLGLFCLHYFHRTFVYSLLNRGRPYPAILILRGTAFCTGNGVLQGYYLIYCAEYPDGWYTDIRFSLGVFLFILGMGINIHSDYILRQLRKPGEISYRIPQGGLFTYVSGANFLGEIIEWIGYALATWSLPALAFAFFSLCFLGLRAFHHHRFYLKMFEDYPKSRKALIPFIF

Experiments:
[1] = biological target: T1, human steroid 5-α-reductase (Homo sapiens, UniProt P31213); test: Inhibition of human prostatic steroid 5-α-reductase: [14C]-testosterone conversion by prostatic particulate, Dixon plot; format: biochemical
T1 construct: an aliquot of prostatic particulate solution to a final volume of 0.5 ml of 50 mM sodium citrate, pH 5.0; from tissue; host or cells: hyperplastic human prostate; washed 140,000 x g particulate fraction
T1 sequence (P31213 1-254): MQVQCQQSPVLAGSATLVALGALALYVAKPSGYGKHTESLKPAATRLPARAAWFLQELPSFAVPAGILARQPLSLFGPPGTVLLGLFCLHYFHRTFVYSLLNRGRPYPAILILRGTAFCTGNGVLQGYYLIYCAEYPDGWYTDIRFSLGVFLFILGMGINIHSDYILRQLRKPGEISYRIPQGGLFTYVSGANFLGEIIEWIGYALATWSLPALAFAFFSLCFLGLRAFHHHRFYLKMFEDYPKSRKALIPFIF
Method: The potency of several compounds of the invention was tested for potency in inhibiting human steroid 5-α-reductase using tissue from hyperplastic human prostates. In determining potency in inhibiting the human enzyme, the following procedure was employed:
Frozen human prostates were thawed and minced into small pieces ( 5mm³). The tissue was homogenized in 3 to 5 volumes of 20 mM potassium phosphate, pH 6.5, buffer containing 0.33 M sucrose, 1 mM dithiothreitol, and 50 µM NADPH with a Brinkmann Polytron (Sybron Corporation, Westbury, New York). The solution was subjected to sonication for 3 to 5 minutes with a Sonifier (Branson Sonic Power Co.) followed by hand homogenization in a glass-to-glass Dounce homogenizer (Kontes Glass Company, Vineland, New Jersey).
Prostatic particles were obtained by differential centrifugation at 600 or 1000 x g for 20 minutes and 140,000 x g for 60 minutes at 4°C. The pellet obtained from the 140,000 x g centrifugation was washed with 5 to 10 tissue volumes of the buffer described above and recentrifuged at 140,000 x g. The resulting pellet was suspended in 20 mM potassium phosphate buffer, pH 6.5, containing 20% glycerol, 1 mM dithiothreitol, and 50 µM NADPH. The suspended particulate solution was stored at -80°C.
To each tube was added buffer, 20 µl of 10 mM NADPH and an aliquot of prostatic particulate solution to a final volume of 0.5 ml of 50 mM sodium citrate, pH 5.0. […] The organic layer was removed to a second test tube and evaporated to dryness in vacuo. The residue was dissolved in 20 to 30 µl chloroform, spotted on an individual lane of a 20 x 20 cm prechannelled silica gel TLC plate (Si 250F-PA, Baker Chemical) and developed twice with acetone:chloroform (1:9). The radiochemical content in the bands of the substrate and the products was determined with a BIOSCAN Imaging Scanner (Bioscan, Inc., Washington, D.C.). The percent of recovered radiolabel converted to product was calculated, from which enzyme activity was determined.
The experimentally obtained data was computer fitted to a linear function by plotting the reciprocal of the enzyme activity (1/velocity) against the variable inhibitor concentration (Dixon, M. (1953), Biochem. J., 55, 170).

steroid 5-α-reductase = test: In vivo inhibition of steroid 5-α-reductase: DHT levels in rat ventral prostate (HPLC, radioimmunoassay); set-up: species or system Male Charles River CD rats; settings: rats, dose of 20mg/kg, four hours after compound administration, p<.15
Method: One of the compounds of the invention, 17β-(N-tert-butylcarboxamide)-estr-1,3,5(10)-triene-3-carboxylic acid, also was tested for its in vivo potency in inhibiting steroid 5-α-reductase activity. Male Charles River CD rats, 48 days old, weighing approximately 200 gm were administered this compound dissolved in propylene glycol and diluted in normal saline. Following compound administration the animals were sacrificed, the ventral prostates were excised, and DHT levels were measured by the following procedure.
Prostate tissue was excised, trimmed, weighed, minced and washed with phosphate buffer. The tissue then was homogenized in phosphate buffer and extracted by addition of ethyl acetate and mixing on an orbital mixer for forty-five minutes. The ethyl acetate was evaporated, the residue was reconstituted in ethanol, and was centrifuge filtered using […] filter paper. The components then were separated using reverse-phase HPLC collecting the DHT fraction. The fraction was reduced to dryness and reconstituted in standard DHT assay buffer available from Amersham. DHT levels then were measured using standard techniques such as radioimmunoassay.
In the compound-treated rats, prostatic DHT levels were decreased forty percent relative to vehicle-treated controls (p<.15) four hours after compound administration at a dose of 20mg/kg.

[2] = substrate: C[C@]12CC[C@H]3[C@@H](CCC4=CC(=O)CC[C@@]43C)[C@@H]1CC[C@@H]2O; test: purified protein, by the assay type; settings: other: substrate of steroid 5-α-reductase, used in equation 1

Row | Molecule | Ki [1] [nM] | prostatic DHT levels decreased relative to vehicle-treated controls (steroid 5-α-reductase) | Km [2] [µM]
1 | Cc1cc2c(cc1C(=O)O)CC[C@@H]1[C@@H]2CC[C@]2(C)[C@@H](C(=O)N(C(C)C)C(C)C)CC[C@@H]12 [17β-(N,N-Diisopropylcarboxamide)-2-methyl-estr-1,3,5(10)-triene-3-carboxylic Acid] | 57 | – | –
2 | CC(C)N(C(=O)[C@H]1CC[C@H]2[C@@H]3C=Cc4cc(C(=O)O)ccc4[C@H]3CC[C@]12C)C(C)C [17β-(N,N-Diisopropylcarboxamide)-estr-1,3,5(10),6-tetraene-3-carboxylic Acid] | 30 | – | –
3 | CC(C)N(C(=O)C1=CC[C@H]2[C@@H]3CCc4cc(C(=O)O)ccc4[C@H]3CC[C@]12C)C(C)C [17β-(N,N-Diisopropylcarboxamide)-estr-1,3,5(10),16-tetraene-3-carboxylic Acid] | 70 | – | –
4 | CC(C)N(C(=O)[C@H]1CC[C@H]2[C@@H]3CCc4cc(C(=O)O)ccc4[C@H]3CC[C@]12C)C(C)C [17β-(N,N-Diisopropylcarboxamide)-estr-1,3,5(10)-triene-3-carboxylic Acid] | 19 | – | –
5 | CC(C)N(C(=O)[C@H]1CC[C@H]2[C@@H]3CCc4cc(CC(=O)O)ccc4[C@H]3CC[C@]12C)C(C)C [17β-(N,N-diisopropylcarboxamide)-estr-1,3,5(10)-triene-3-acetic acid] | 20 | – | –
6 | Cc1c(C(=O)O)ccc2c1CC[C@@H]1[C@@H]2CC[C@]2(C)[C@@H](C(=O)N(C(C)C)C(C)C)CC[C@@H]12 [17β-(N-N-Diisopropylcarboxamide)-4-methyl-estr-1,3,5(10)-triene-3-carboxylic Acid] | 270 | – | –
7 | CC(C)N(C(=O)[C@H]1CC[C@H]2c3ccc4cc(C(=O)O)ccc4c3CC[C@]12C)C(C)C [17β-(N-N-Diisopropylcarboxamide)-estr-1,3,5(10),-6,8-pentaene-3-carboxylic Acid] | 40 | – | –
8 | CC(C)(C)NC(=O)C1=CC[C@H]2[C@@H]3CCc4cc(C(=O)O)ccc4[C@H]3CC[C@]12C [17β-(N-tert-Butylcarboxamide)-estr-1,3,5(10),-16-tetraene-3-carboxylic Acid] | 60 | – | –
9 | CC(C)(C)NC(=O)[C@H]1CC[C@H]2[C@@H]3CCc4cc(C(=O)O)ccc4[C@H]3CC[C@]12C [17β-(N-tert-Butylcarboxamide)-estr-1,3,5(10)-triene-3-carboxylic Acid] | 43 | forty | –
10 | B1 | – | – | 4.5
